Experimental findings from patent publication EP2771349B1, “BIO[…] FOR DETERMINATION OF PEPTIDE BINDING” (Iogenetics, LLC., priority 2011, dated 2013) are described below.

The data set can be described thus: Principal components analysis of amino acid physical properties from 31 studies. As to conditions: for Prin1: first principal component, index of amino acid polarity or hydrophobicity, most hydrophobic highest; for Prin2: second principal component, related to size or volume, smallest has highest score; for Prin3: third principal component. An excerpt: In some cases, principal components of amino acids are utilized to accurately predict binding affinities of sub-sequences of amino acids within the proteins to all MHC-I and MHC-II receptors. Principal Components Analysis is a mathematical process that is used in many different scientific fields and which reduces the dimensionality of a set of data. (Bishop, C.M., Neural Networks for Pattern Recognition. Oxford University Press, Oxford 1995. Bouland, H. and Kamp,Y., Biological Cybernetics 1988. 59: 291-294.). Derivation of principal components is a linear transformation that locates directions of maximum variance in the original input data, and rotates the data along these axes. Typically, the first several principal components contain the most information. Principal components is particularly useful for large datasets with many different variables. Using principal components provides a way to picture the structure of the data as completely as possible by using as few variables as possible. For n original variables, n principal components are formed as follows: The first principal component is the linear combination of the standardized original variables that has the greatest possible variance. Each subsequent principal component is the linear combination of the standardized original variables that has the greatest possible variance and is uncorrelated with all previously defined components. Further, the principal components are scale-independent in that they can be developed from different types of measurements. For example, datasets from HPLC retention times (time units) or atomic radii ([…]) can be consolidated to produce principal components. Another characteristic is that principal components are weighted appropriately for their respective contributions to the response and one common use of principal components is to develop appropriate weightings for regression parameters in multivariate regression analysis. Outside the field of immunology, principal components analysis (PCA) is most widely used in regression analysis. Initial tests were conducted using the principal components in a multiple regression partial least squares (PLS) approach (Wold, S., Sjorstrom,M., and Eriksson,L., Chemometrics and Intelligent Laboratory Systems 2001. 58: 109-130.). Principal component analysis can be represented in a linear network. PCA can often extract a very small number of components from quite high-dimensional original data and still retain the important structure.
Accordingly, in some cases physical properties of amino acids are used for subsequent analysis. The compiled physical properties are available at a proteomics resource website (expasy.org/tools/protscale.html). In some cases, the data for each of the 20 different amino acids from these studies are tabulated, resulting in 20 x 31 different datapoints, each providing a unique estimate of a physical characteristic of that amino acid. The power of principal component analysis lies in the fact that the results of all of these studies can be combined to produce a set of mathematical properties of the amino acids which have been derived by a wide array of independent methodologies. The patterns derived in this way are similar to those of Wold et. al. but the absolute numbers are different. The physicochemical properties derived in the studies used for this calculation are shown in (Table 2). […] All subsequent work described herein is based on use of the first three principal components.
From this it can be seen that the first principal component (Prin1) is an index of amino acid polarity or hydrophobicity; the most hydrophobic amino acids have the highest numerical value. The second principal component (Prin2) is related to the size or volume of the amino acid, with the smallest having the highest score. […]

For the compound `CC(N)C(=O)O` (stereo not drawn) [A], the Prin1 amounted to 0.72, the Prin2 is listed as 2.48 and the Prin3 came to 1.42.
As to `NC(CC(=O)O)C(=O)O` (stereo not drawn) [D], the Prin1 is listed as -6.04, the Prin2 was found to be 0.03 and the Prin3 is given as -0.18.
The corresponding values for `NC(CCC(=O)O)C(=O)O` (stereo not drawn) [E] are -5.70, 0.34 and -1.46.
The corresponding values for `NCC(=O)O` [G] are -0.76, 3.08 and 1.21.
For `NC(Cc1c[nH]cn1)C(=O)O` (stereo not drawn) [H] the same measures were -2.55, -1.00 and -1.94.
For the compound `NCCCCC(N)C(=O)O` (stereo not drawn) [K], the Prin1 is -6.68, the Prin2 is -1.32 and the Prin3 came out at 1.16.
The corresponding values for `NC(=O)CC(N)C(=O)O` (stereo not drawn) [N] are -4.35, 0.21 and 0.30.
For `O=C(O)C1CCCN1` (stereo not drawn) [P] the same measures were -0.03, -0.36 and 1.87.
Take `NC(=O)CCC(N)C(=O)O` (stereo not drawn) [Q]: the Prin1 is recorded as -3.97, the Prin2 was -0.47 and the Prin3 is recorded as 0.15.
For `N=C(N)NCCCC(N)C(=O)O` (stereo not drawn) [R] the same measures were -6.30, -2.93 and -0.91.
With `CC(O)C(N)C(=O)O` (stereo not drawn) [T], the Prin1 is reported as -1.42, the Prin2 is 0.80 and the Prin3 was determined as 0.94.
